Laboratory results published in US20040156869A1, “2-substituted quinazolin-4-ylamine analogues” (Neurogen Corporation, priority 2002, published 2004).

Target: human capsaicin receptor (VR1) (Homo sapiens, UniProt Q8NER1)
Assay: Capsaicin receptor binding assay ([3H]RTX competition, VR1-transfected HEK293 membranes)

human capsaicin receptor (VR1), sequence (Q8NER1 whole entry): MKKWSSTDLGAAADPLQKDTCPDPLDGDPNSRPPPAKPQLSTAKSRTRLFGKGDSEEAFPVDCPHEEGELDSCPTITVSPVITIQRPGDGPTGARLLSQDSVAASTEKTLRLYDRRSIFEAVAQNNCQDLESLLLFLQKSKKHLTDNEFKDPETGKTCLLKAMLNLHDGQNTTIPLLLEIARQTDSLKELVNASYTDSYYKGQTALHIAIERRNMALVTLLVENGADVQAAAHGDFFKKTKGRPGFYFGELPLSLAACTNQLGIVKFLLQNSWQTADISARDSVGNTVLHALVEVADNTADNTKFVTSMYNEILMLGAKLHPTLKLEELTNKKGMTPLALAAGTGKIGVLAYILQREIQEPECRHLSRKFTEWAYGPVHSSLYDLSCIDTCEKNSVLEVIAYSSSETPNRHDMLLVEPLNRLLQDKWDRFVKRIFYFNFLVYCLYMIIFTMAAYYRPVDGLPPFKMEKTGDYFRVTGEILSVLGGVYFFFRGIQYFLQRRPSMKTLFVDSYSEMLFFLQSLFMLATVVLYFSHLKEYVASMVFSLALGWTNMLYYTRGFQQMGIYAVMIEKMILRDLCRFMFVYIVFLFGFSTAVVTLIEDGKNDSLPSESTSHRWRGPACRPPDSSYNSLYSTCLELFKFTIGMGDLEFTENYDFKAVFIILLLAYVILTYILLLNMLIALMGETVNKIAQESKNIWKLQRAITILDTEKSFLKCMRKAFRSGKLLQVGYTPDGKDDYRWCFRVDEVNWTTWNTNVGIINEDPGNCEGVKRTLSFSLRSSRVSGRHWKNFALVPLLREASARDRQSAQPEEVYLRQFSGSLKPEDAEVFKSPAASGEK

Ki [µM] | SMILES
< 1 | CC(C)S(=O)(=O)c1ccc(Nc2nc(CN3C[C@@H](C)O[C@@H](C)C3)nc3cc(-c4ncccc4C(F)(F)F)cnc23)cc1 [Compound 595, [2-(2,6-Dimethyl-morpholin-4-ylmethyl)-7-(3-trifluoromethyl-pyridin-2-yl)-pyrido[3,2-d]pyrimidin-4-yl]-[4-(propane-2-sulfonyl)-phenyl]-amine (cis)]
< 1 | Cc1cccnc1-c1ccc2c(Nc3ccc(C(F)(F)F)cc3)nc(CN3CC[C@@H](O)C3)nc2c1 [Compound 732, (R)-1-[7-(3-Methyl-pyridin-2-yl)-4-(4-trifluoromethyl-phenylamino)-quinazolin-2-ylmethyl]-pyrrolidin-3-ol]
< 1 | COCc1nc(Nc2ccc(Cl)c(F)c2)c2ccc(-c3ncccc3C(F)(F)F)nc2n1 [Compound 292, (4-Chloro-3-fluoro-phenyl)-[2-methoxymethyl-7-(3-trifluoromethyl-pyridin-2-yl)-pyrido[2,3-d]pyrimidin-4-yl]-amine]
< 1 | C[C@@H]1CN(Cc2nc(Nc3ccc(C(C)(C)C)nc3)c3ccc(-c4ncccc4Cl)cc3n2)C[C@@H](C)O1 [Compound 607, (R,R)-(6-tert-Butyl-pyridin-3-yl)-[7-(3-chloro-pyridin-2-yl)-2-(2,6-dimethyl-morpholin-4-ylmethyl)-quinazolin-4-yl]-amine]
< 1 | CN(CCc1nc(Nc2ccc(C(F)(F)F)cc2)c2ccc(-c3ncccc3C(F)(F)F)cc2n1)C1CCc2ccccc21 (stereo not drawn) [Compound 389, [2-[2-(Indan-1-yl-methyl-amino)-ethyl]-7-(3-trifluoromethyl-pyridin-2-yl)-quinazolin-4-yl]-(4-trifluoromethyl-phenyl)-amine]
< 1 | CC(C)CNCc1nc(Nc2ccc(C(F)(F)F)cc2)c2ccc(-c3ncccc3C(F)(F)F)cc2n1 [Compound 536, [2-(Isobutylamino-methyl)-7-(3-trifluoromethyl-pyridin-2-yl)-quinazolin-4-yl]-(4-trifluoromethyl-phenyl)-amine]
< 1 | CC1CCCCN1Cc1nc(Nc2ccc(C(F)(F)F)nc2)c2ccc(-c3ncccc3C(F)(F)F)cc2n1 (stereo not drawn) [Compound 379, [2-(2-Methyl-piperidin-1-ylmethyl)-7-(3-trifluoromethyl-pyridin-2-yl)-quinazolin-4-yl]-(6-trifluoromethyl-pyridin-3-yl)-amine]
< 1 | FC(F)(F)c1ccc(Nc2nc([C@@H]3CCCN3)nc3cc(-c4ncccc4C(F)(F)F)ccc23)cc1 [Compound 695, (S)-[2-Pyrrolidin-2-yl-7-(3-trifluoromethyl-pyridin-2-yl)-quinazolin-4-yl]-(4-trifluoromethyl-phenyl)-amine]
< 1 | COCc1nc(Nc2ccc(C(C)(C)COC)cc2)c2ncc(-c3ncccc3C(F)(F)F)cc2n1 [Compound 58, [4-(2-Methoxy-1,1-dimethyl-ethyl)-phenyl]-[2-methoxymethyl-7-(3-trifluoromethyl-pyridin-2-yl)-pyrido[3,2-d]pyrimidin-4-yl]-amine]
< 1 | CCCN(CCO)Cc1nc(Nc2ccc(C(C)(C)C)cc2)c2ccc(-c3ncccc3C(F)(F)F)cc2n1 [Compound 754, 2-{[4-(4-tert-Butyl-phenylamino)-7-(3-trifluoromethyl-pyridin-2-yl)-quinazolin-2-ylmethyl]-propyl-amino}-ethanol]
< 1 | COCc1nc(Nc2ccc(S(=O)(=O)N3CCOCC3)cc2)c2ccc(-c3ncccc3C(F)(F)F)cc2n1 [Compound 126, [2-Methoxymethyl-7-(3-trifluoromethyl-pyridin-2-yl)-quinazolin-4-yl]-[4-(morpholine-4-sulfonyl)-phenyl]-amine]
< 1 | CC(C)OCc1cc(Nc2ccc(C(F)(F)F)cc2)c2ccc(-c3ncccc3C(F)(F)F)nc2n1 [Compound 311, [2-Isopropoxymethyl-7-(3-trifluoromethyl-pyridin-2-yl)-[1,8]naphthyridin-4-yl]-(4-trifluoromethyl-phenyl)-amine]
< 1 | CC(C)(C#N)c1ccc(Nc2nc(COCc3ccccc3)nc3cc(-c4ncccc4C(F)(F)F)ccc23)cc1 [Compound 41, 2-{4-[2-Benzyloxymethyl-7-(3-trifluoromethyl-pyridin-2-yl)-quinazolin-4-ylamino]-phenyl}-2-methyl-propionitrile]
< 1 | CCC(c1ccccc1)N(C)Cc1nc(Nc2ccc(C(F)(F)F)nc2)c2ccc(-c3ncccc3C(F)(F)F)cc2n1 (stereo not drawn) [Compound 350, [2-{[Methyl-1-(1-phenyl-propyl)-amino]-methyl}-7-(3-trifluoromethyl-pyridin-2-yl)-quinazolin-4-yl]-(6-trifluoromethyl-pyridin-3-yl)-amine]
< 1 | O=C(O)C1CCN(Cc2nc(Nc3ccc(C(F)(F)F)cc3)c3ccc(-c4ncccc4C(F)(F)F)cc3n2)CC1 [Compound 728, 1-[4-(4-Trifluoromethyl-phenylamino)-7-(3-trifluoromethyl-pyridin-2-yl)-quinazolin-2-ylmethyl]-piperidine-4-carboxylic acid]
< 1 | FC(F)(F)c1ccc(Nc2nc(CN3CCN(CCN4CCCC4)CC3)nc3cc(-c4ncccc4C(F)(F)F)ccc23)cc1 [Compound 517, [2-[4-(Pyrrolidin-1-yl-ethyl)-piperazin-1-ylmethyl]-7-(3-trifluoromethyl-pyridin-2-yl)-quinazolin-4-yl]-(4-trifluoromethyl-phenyl)-amine]
< 1 | CCN(CC)CCCOCc1nc(Nc2ccc(C(F)(F)F)cc2)c2ccc(-c3ncccc3C(F)(F)F)cc2n1 [Compound 115, [2-(3-Diethylamino-propoxymethyl)-7-(3-trifluoromethyl-pyridin-2-yl)-quinazolin-4-yl]-(4-trifluoromethyl-phenyl)-amine]
< 1 | C[C@@H]1CN(Cc2nc(Nc3ccc(C(F)(F)F)cc3)c3ccc(-c4ccccc4C(F)(F)F)cc3n2)C[C@H](C)O1 [Compound 620, [2-(2,6-Dimethyl-morpholin-4-ylmethyl)-7-(2-trifluoromethyl-phenyl)-quinazolin-4-yl]-(4-trifluoromethyl-phenyl)-amine (cis)]
< 1 | COCc1nc(Nc2ccc(C(F)(F)F)cc2)c2ccc(-c3nccnc3Cl)nc2n1 [Compound 235, [7-(3-Chloro-pyrazin-2-yl)-2-methoxymethyl-pyrido[2,3-d]pyrimidin-4-yl]-(4-trifluoromethyl-phenyl)-amine]

SMILES | Ki [µM]
COC(=O)c1ccc(Nc2nc(COCC(C)C)nc3nc(-c4ncccc4Cl)ccc23)cc1 [Compound 267, 4-[7-(3-Chloro-pyridin-2-yl)-2-isobutoxymethyl-pyrido[2,3-d]pyrimidin-4-ylamino]-benzoic acid methyl ester] | < 1
CN1C2CCC1CC(NC(=O)c1nc(Nc3ccc(C(F)(F)F)cc3)c3ccc(-c4ncccc4C(F)(F)F)nc3n1)C2 (stereo not drawn) [Compound 445, 4-(4-Trifluoromethyl-phenylamino)-7-(3-trifluoromethyl-pyridin-2-yl)-pyrido[2,3-d]pyrimidine-2-carboxylic acid (8-methyl-8-aza-bicyclo[3.2.1]oct-3-yl)-amide] | < 1
CC(C)COCc1nc(Nc2ccc(F)c(F)c2)c2ccc(-c3ncccc3Cl)nc2n1 [Compound 268, [7-(3-Chloro-pyridin-2-yl)-2-isobutoxymethyl-pyrido[2,3-d]pyrimidin-4-yl]-(3,4-difluoro-phenyl)-amine] | < 1
Cc1cccnc1-c1ccc2c(Nc3ccc(C4(C#N)CCC4)cc3)nc(COCC(C)C)nc2n1 [Compound 151, 1-{4-[2-Isobutoxymethyl-7-(3-methyl-pyridin-2-yl)-pyrido[2,3-d]pyrimidin-4-ylamino]-phenyl}-cyclobutanecarbonitrile] | < 1
CC(C)COCc1nc(Nc2ccc(OC(F)(F)F)cc2)c2ccc(-c3ncccc3Cl)nc2n1 [Compound 180, [7-(3-Chloro-pyridin-2-yl)-2-isobutoxymethyl-pyrido[2,3-d]pyrimidin-4-yl]-(4-trifluoromethoxy-phenyl)-amine] | < 1
